The values below come from patent US12583839B2, “PD-L1 antagonist compound” (ADLAI NORTYE BIOPHARMA CO., LTD., priority 2019, dated 2026).

pEC50: −log10 of the molar value.

What is called pEC50 is −log10 of the EC50, conventionally taken in molar units.

T1 sequence (Q9NZQ7 19-290): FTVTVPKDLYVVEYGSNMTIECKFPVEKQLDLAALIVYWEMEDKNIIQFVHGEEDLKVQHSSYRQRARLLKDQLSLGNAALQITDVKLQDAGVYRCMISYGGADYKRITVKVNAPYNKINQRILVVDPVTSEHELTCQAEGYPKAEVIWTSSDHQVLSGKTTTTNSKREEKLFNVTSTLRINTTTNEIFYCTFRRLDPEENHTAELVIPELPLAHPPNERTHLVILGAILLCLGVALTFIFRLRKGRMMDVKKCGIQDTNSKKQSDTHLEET

The experiment addresses T1, PD-1/PD-L1 (Homo sapiens, UniProt Q9NZQ7).
T1 construct: 60535 (PD-1/NFAT-Reporter-Jurkat); host or cells: CHO cells expressing PD-L1; Jurkat cells expressing PD-1
In words: Detection of biological activity of PD-1/PD-L1 signaling inhibition at the cellular level (NFAT luciferase reporter, PD-1/NFAT-Reporter-Jurkat cells co-cultured with TCR activator/PD-L1-CHO cells). In kind it is cell-based. The note with it: PD-1/NFAT-Reporter-Jurkat + TCR activator/PD-L1-CHO co-culture, 6 hours; Atezolizumab as positive control. The source says:
Detection of Biological Activity of PD-1/PD-L1 Signaling Inhibition at the Cellular Level
This detection method is used for evaluating the biological activity of the compounds described in the present invention at the cellular level.
This detection method uses the luciferase reporter gene method to detect the biological activity of the compound on the inhibition of PD-1/PD-L1 signal at the cellular level. PD-1/NFAT—Reporter—Jurkat cells stably express human PD-1 and express the luciferase reporter gene regulated by NFAT elements; TCR activator/PD-L1-CHO cells stably express human PD-L1 and TCR activator elements. When the two cell lines were co-cultured, the binding of PD-1/PD-L1 inhibited the TCR signaling pathway, thereby inhibiting the expression of the downstream NFAT-controlled luciferase reporter gene. When PD-1/PD-L1 antibody or inhibitor is added, this inhibitory effect is reversed and luciferase is expressed, so that the effect of PD-1/PD-L1 inhibitor on luciferase activity can be detected.
PD-1/NFAT—Reporter—Jurkat cell (Cat: 60535) and TCR activator/PD-L1-CHO cell (Cat: 60536) were purchased from BPS Bioscience. Anti-human PD-L1 antibody (Atezolizumab, Cat: A2004) was purchased from Selleck; luciferase reporter gene expression detection kit (ONE-Glo™ Luciferase Assay System, Cat: E6120) was purchased from Promega; multifunction plate reader (SpectraMax i3x) was purchased from Molecular Devices.
The PD-1/NFAT—Reporter—Jurkat cells and TCR activator/PD-L1-CHO cells were cultured according to the routine cell culture protocol.
TCR activator/PD-L1-CHO cells were harvested and seeded into a 96-well culture plate at 35,000 cells/well in a medium volume of 100 μl and incubated overnight at 37° C. The next day, the medium was discarded, compound was added and incubated for 30 minutes, while a solvent control (dimethyl sulfoxide, DMSO, final concentration of 0.1%) and PD-L1 antibody (Atezolizumab, final concentration of about 10 nM) as positive controls were set. PD-1/NFAT-reporter-Jurkat cells were then added. After culturing for 6 hours, the luciferase activity was detected according to the instructions of the luciferase detection reagent.
Using PD-L1 antibody as a positive control, calculate the inhibition rate of PD-1/PD-L1 binding of the test compound (%)=(chemiluminescence value of compound treated wells/average value of chemiluminescence value of solvent control wells−1)/(average value of chemiluminescence value of PD-L1 antibody well/average value of chemiluminescence value of solvent control well−1)×100%.
According to the above detection method, the compounds of the present invention were evaluated for their biological activity at the cellular level, and the activity results are shown in the following table.
(In general: In a reporter assay the amount or activity of a reporter protein is the signal.)
For the compound `N#Cc1cncc(COc2cc(Cn3ncc4c(-c5cccc(-c6ccc(CN7CC[C@@H](O)C7)cc6)c5Cl)cccc43)c(Cl)cc2CN[C@@H](CO)C(=O)O)c1` [Compound 1], the pEC50 is 7.08.

As to `Cc1c(-c2ccc(CNC[C@@H]3CCC(=O)N3)cc2)cccc1-c1cccc2c1cnn2Cc1cc(OCc2cncc(C#N)c2)c(CN[C@@H](CO)C(=O)O)cc1Cl` [Compound 2], the negative logarithm of the EC50 (pEC50) was 7.07. With `N#Cc1cncc(COc2cc(Cn3ncc4c(-c5cccc(-c6ccc(CN7CCOCC7)cc6)c5Cl)cccc43)c(Cl)cc2CN[C@@H](CO)C(=O)O)c1` [Compound 3] the figure was 6.40; with `CN(CCO)Cc1ccc(-c2cccc(-c3cccc4c3cnn4Cc3cc(OCc4cncc(C#N)c4)c(CN[C@@H](CO)C(=O)O)cc3Cl)c2Cl)cc1` [Compound 4], 6.69; with `N#Cc1cncc(COc2cc(Cn3ncc4c(-c5cccc(-c6ccc(CNCCO)cc6)c5Cl)cccc43)c(Cl)cc2CN[C@@H](CO)C(=O)O)c1` [Compound 5], 7.24.

For `CN(CCO[C@H]1CCOC1)Cc1ccc(-c2cccc(-c3cccc4c3cnn4Cc3cc(OCc4cncc(C#N)c4)c(CN[C@@H](CO)C(=O)O)cc3Cl)c2Cl)cc1` [Compound 6], the pEC50 was 6.64.

With `CN1C(=O)CC[C@H]1CNCc1ccc(-c2cccc(-c3cccc4c3cnn4Cc3cc(OCc4cncc(C#N)c4)c(CN[C@@H](CO)C(=O)O)cc3Cl)c2Cl)cc1` [Compound 7], the pEC50 is 6.79.

As for `COc1cc(-c2cccc(-c3cccc4c3cnn4Cc3cc(OCc4cncc(C#N)c4)c(CN[C@@H](CO)C(=O)O)cc3Cl)c2Cl)ccc1CNC[C@@H]1CCC(=O)N1` [Compound 8], the pEC50 was 7.51. With `N#Cc1cncc(COc2cc(Cn3ncc4c(-c5cccc(-c6ccc(CNC[C@@H]7CCC(=O)N7)cn6)c5Cl)cccc43)c(Cl)cc2CN[C@@H](CO)C(=O)O)c1` [Compound 9] the figure was 6.23; with `N#Cc1cncc(COc2cc(Cn3ncc4c(-c5cccc(-c6ccc(CNC[C@@H]7CCC(=O)N7)nc6)c5Cl)cccc43)c(Cl)cc2CN[C@@H](CO)C(=O)O)c1` [Compound 10], 7.09; with `COc1cc(CNC[C@@H]2CCC(=O)N2)ccc1-c1cccc(-c2cccc3c2cnn3Cc2cc(OCc3cncc(C#N)c3)c(CN[C@@H](CO)C(=O)O)cc2Cl)c1Cl` [Compound 11], 6.95. The same measure for `N#Cc1cncc(COc2cc(Cn3ncc4c(-c5cccc(-c6ccc(CNC[C@@H]7CCC(=O)N7)cc6)c5F)cccc43)c(Cl)cc2CN[C@@H](CO)C(=O)O)c1` [Compound 12]: 6.59; for `N#Cc1cncc(COc2cc(Cn3ncc4c(-c5cccc(-c6ccc(CNC[C@@H]7CCC(=O)N7)cc6)c5C#N)cccc43)c(Cl)cc2CN[C@@H](CO)C(=O)O)c1` [Compound 13]: 6.94; for `N#Cc1cncc(COc2cc(Cn3ncc4c(-c5cccc(-c6ccc(CNC[C@@H]7CCC(=O)N7)cc6)c5)cccc43)c(Cl)cc2CN[C@@H](CO)C(=O)O)c1` [Compound 14]: 6.47.

In the case of `N#Cc1cncc(COc2cc(Cn3ncc4c(-c5cccc(-c6ccc(CCN7CC[C@@H](O)C7)cc6)c5Cl)cccc43)c(Cl)cc2CN[C@@H](CO)C(=O)O)c1` [Compound 18], the negative-log EC50 (pEC50) was 6.25. In the case of `N#Cc1cncc(COc2cc(Cn3ncc4c(-c5cccc(-c6ccc(CCCN7CC[C@@H](O)C7)cc6)c5Cl)cccc43)c(Cl)cc2CN[C@@H](CO)C(=O)O)c1` [Compound 19], the pEC50 was 6.29. With `N#Cc1cncc(COc2cc(Cn3ncc4c(-c5cccc(-c6ccc(CNC[C@@H]7CCC(=O)N7)cc6)c5Cl)cccc43)c(Cl)cc2CNCC(=O)O)c1` [Compound 22] the figure was 7.05.

Turning to `CC(C)OC(=O)[C@H](CO)NCc1cc(Cl)c(Cn2ncc3c(-c4cccc(-c5ccc(CNC[C@@H]6CCC(=O)N6)cc5)c4Cl)cccc32)cc1OCc1cncc(C#N)c1` [Compound 23], the negative-log EC50 (pEC50) is 6.29.

`N#Cc1cncc(COc2cc(Cn3ncc4c(-c5cccc(-c6ccc(CNC[C@@H]7CCC(=O)N7)cc6)c5Cl)cccc43)c(Cl)cc2CNCCO)c1` [Compound 24]: the pEC50 was 7.27.

As for `N#Cc1cncc(COc2cc(Cn3ncc4c(-c5cccc(-c6ccc(CNC[C@@H]7CCC(=O)N7)cc6)c5Cl)cccc43)c(Cl)cc2CN2CCC[C@H]2C(=O)O)c1` [Compound 25], the pEC50 is 6.89. With `CN(Cc1cc(Cl)c(Cn2ncc3c(-c4cccc(-c5ccc(CNC[C@@H]6CCC(=O)N6)cc5)c4Cl)cccc32)cc1OCc1cncc(C#N)c1)[C@@H](CO)C(=O)O` [Compound 26], the pEC50 is 7.07. On to `N#Cc1cncc(COc2cc(Cn3ncc4c(-c5cccc(-c6ccc(CNC[C@@H]7CCC(=O)N7)cc6)c5Cl)cccc43)c(Cl)cc2CN2CC[C@@H](C(=O)O)C2)c1` [Compound 27], for which the negative-log EC50 (pEC50) was 6.88.

Take `COc1cc(-c2cccc(-c3cccc4c3cnn4Cc3cc(OCc4cncc(C#N)c4)c(CN[C@@H](CO)C(=O)OC(C)C)cc3Cl)c2Cl)ccc1CNC[C@@H]1CCC(=O)N1` [Compound 28]: the pEC50 is 6.96. With `COc1nc(-c2cccc(-c3cccc4c3cnn4Cc3cc(OCc4cncc(C#N)c4)c(CNCCO)cc3Cl)c2Cl)ccc1CNC[C@@H]1CCC(=O)N1` [Compound 29] the figure was 7.18; with `COc1cc(Cn2ncc3c(-c4cccc(-c5ccc(CNC[C@@H]6CCC(=O)N6)cc5)c4Cl)cccc32)c(Cl)cc1CN[C@@H](CO)C(=O)O` [Compound 30], 7.09; with `COc1cc(Cn2ncc3c(-c4cccc(-c5ccc(CNC[C@@H]6CCC(=O)N6)cc5)c4Cl)cccc32)c(Cl)cc1CNC[C@H](O)CC(=O)O` [Compound 31], 7.09.

Take `COc1cc(Cn2ncc3c(-c4cccc(-c5ccc(CNC[C@@H]6CCC(=O)N6)cc5)c4Cl)cccc32)c(Cl)cc1CNCC(=O)O` [Compound 32]: the pEC50 is 6.61. With `COc1cc(Cn2ncc3c(-c4cccc(-c5ccc(CNC[C@@H]6CCC(=O)N6)cc5)c4Cl)cccc32)c(Cl)cc1CN1CC[C@@H](C(=O)O)C1` [Compound 33], the negative-log EC50 (pEC50) is 6.29. With `COc1cc(Cn2ncc3c(-c4cccc(-c5ccc(CNC[C@@H]6CCC(=O)N6)cc5)c4Cl)cccc32)c(Cl)cc1CN1CCC[C@@H](C(=O)O)C1` [Compound 35] the figure was 6.07; with `COc1cc(Cn2ncc3c(-c4cccc(-c5ccc(CNC[C@@H]6CCC(=O)N6)cc5)c4Cl)cccc32)c(Cl)cc1CN1CCC[C@H](C(=O)O)C1` [Compound 36], 6.34; with `COc1cc(Cn2ncc3c(-c4cccc(-c5ccc(CNC[C@@H]6CCC(=O)N6)cc5)c4Cl)cccc32)c(Cl)cc1CN1CCC(C(=O)O)CC1` [Compound 37], 6.01. In the case of `COc1cc(Cn2ncc3c(-c4cccc(-c5ccc(CNC[C@@H]6CCC(=O)N6)cc5)c4Cl)cccc32)c(Cl)cc1CN1CC(C(=O)O)C1` [Compound 38], the pEC50 is 6.09. The same measure for `COc1cc(Cn2ncc3c(-c4cccc(-c5ccc(CNC[C@@H]6CCC(=O)N6)cc5)c4Cl)cccc32)c(Cl)cc1CNCC1CCC(C(=O)O)CC1` (stereo partly shown) [Compound 39]: 6.53; for `COc1cc(Cn2ncc3c(-c4cccc(-c5ccc(CNC[C@@H]6CCC(=O)N6)cc5)c4Cl)cccc32)c(Cl)cc1CNC1CCC(C(=O)O)CC1` (stereo partly shown) [Compound 40]: 6.67; for `COc1cc(Cn2ncc3c(-c4cccc(-c5ccc(CNC[C@@H]6CCC(=O)N6)cc5)c4Cl)cccc32)c(Cl)cc1CNC1CCC(C(=O)O)CC1` (stereo partly shown) [Compound 41]: 6.53. The same measure for `COc1cc(Cn2ncc3c(-c4cccc(-c5ccc(CNC[C@@H]6CCC(=O)N6)cc5)c4Cl)cccc32)c(Cl)cc1CN1C[C@H](O)C[C@H]1C(=O)O` [Compound 42]: 6.46; for `COc1cc(Cn2ncc3c(-c4cccc(-c5ccc(CNC[C@@H]6CCC(=O)N6)cc5)c4Cl)cccc32)c(Cl)cc1CN1CCC[C@H]1C(=O)O` [Compound 43]: 6.27; for `COc1cc(Cn2ncc3c(-c4cccc(-c5ccc(CNC[C@@H]6CCC(=O)N6)cc5)c4Cl)cccc32)c(Cl)cc1CN(C)CC1CCC(C(=O)O)CC1` (stereo partly shown) [Compound 47]: 6.30. With `COc1cc(Cn2ncc3c(-c4cccc(-c5ccc(CNC[C@@H]6CCC(=O)N6)c(C)c5)c4Cl)cccc32)c(Cl)cc1CN1CC[C@@H](C(=O)O)C1` [Compound 48] the figure was 6.18; with `COc1cc(Cn2ncc3c(-c4cccc(-c5ccc(CNC[C@@H]6CCC(=O)N6)c(Cl)c5)c4Cl)cccc32)c(Cl)cc1CN1CC[C@@H](C(=O)O)C1` [Compound 49], 6.07.
